Measured values as given in patent US12134610B2, “Somatostatin subtype-2 receptor (SST2R) targeted therapeutics and uses thereof” (priority 2022, dated 2024).
Starred links: 1 amine or outer side, 2 acyl side, 3 side chain; linkers in the order of their positions; H or OH if unused. Non-standard residues stand in square brackets, D forms with d. Residues, ends and D or L forms follow the SMILES beside them. *: point of attachment. X4 = Cc1cc(F)cc(-c2cnc(NCCNC(=O)CCOCCOCCOCCOCCC(=O)*)c(-c3nc4ccc(Cl)cc4[nH]3)c2N2CCC(N)CC2)c1; X1 = Cc1cc(F)cc(-c2cnc(NCCNC(=O)CCOCCC(=O)*)c(-c3nc4ccc(Cl)cc4[nH]3)c2N2CCC(N)CC2)c1; Dolaproine = CO[C@@H]([C@@H]1CCCN1)[C@@H](C)C(=O)O; Dil = CC[C@H](C)[C@H](NC)[C@@H](CC(=O)O)OC; PABC = O=C(OCc1ccc(N[*:1])cc1)[*:2]; X2 = C[C@@H](N*)[C@@H](O)c1ccccc1; Cya = N[C@@H](CS(=O)(=O)O)C(=O)O; Cit = NC(=O)NCCC[C@H](N)C(=O)O; NMeV = CN[C@H](C(=O)O)C(C)C

Assays:
Type in all cases: cell-based
[1] = molecular target: T1, human somatostatin receptor subtype 2 (Homo sapiens, UniProt P30874); assay: Functional cAMP assay for SSTR2 agonists (HTRF) in CHO-K1 cells; conditions: CHO-K1 cells stably expressing human SST2, 20 min; read-out: hSST2 cAMP Avg EC50
T1 construct: expressed in transfected cells
T1 sequence (P30874 whole entry): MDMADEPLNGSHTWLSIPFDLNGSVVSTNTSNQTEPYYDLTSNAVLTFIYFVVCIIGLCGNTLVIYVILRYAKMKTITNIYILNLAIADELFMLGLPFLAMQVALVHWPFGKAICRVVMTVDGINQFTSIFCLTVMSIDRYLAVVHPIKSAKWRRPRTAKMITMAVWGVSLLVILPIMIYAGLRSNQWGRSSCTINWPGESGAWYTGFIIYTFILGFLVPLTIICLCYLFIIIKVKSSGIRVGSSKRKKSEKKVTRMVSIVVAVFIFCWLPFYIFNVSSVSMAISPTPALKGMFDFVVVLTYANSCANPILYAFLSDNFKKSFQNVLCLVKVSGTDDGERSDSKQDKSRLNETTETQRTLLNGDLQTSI
Procedure, shortened: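 CHO-K1 cells stably expressing receptor, plated 4 days before assay, treated 20 min at 37° C. with compound (typically 0-10,000 nM final) plus IBMX and 1.6 μM NKH477 to raise cAMP. HTRF read, 665/620 nm ratio; cAMP from standard curve, EC50 fitted.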

SST2 = molecular target: T2, SST2 (Homo sapiens, UniProt P30874); assay: PathHunter CHO-K1 SST2 internalization assay; conditions: PathHunter CHO-K1 SST2, 90 min; read-out: Internalization EC50
T2 construct: host or cells: PathHunter CHO-K1 SST2 cells
T2 sequence (P30874 whole entry): as above
Procedure, shortened: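 PathHunter CHO-K1 SST2 cells, seeded and grown 48 h, were exposed to 11-point 1:3 dilutions of SMDC (top final 10 uM) for 90 min at 37 C, 5% CO2. Beta-Glo luminescence was read after 60 min at room temperature. Background-corrected duplicate means were fitted by four-parameter nonlinear regression to give IC50.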

[2] = system: NCI-H524 (ATCC) human small cell lung cancer cells; conditions: 2 h
Procedure, shortened: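 NCI-H524 cells (5,000/well) were exposed 24 h after plating to SMDC for 2 h, 11-point two-fold series from 1 uM. After washout they grew a further 70 h. Proliferation was read by CellTiter-Glo luminescence, % inhibition taken vs untreated control, and IC50 fitted by four-parameter nonlinear regression.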

Row | SMILES | EC50 [1] [nM] | EC50 (SST2) [nM] | EC50 [2] [nM]
1 | CC[C@H](C)[C@@H]([C@@H](CC(=O)N1CCC[C@H]1[C@H](OC)[C@@H](C)C(=O)N[C@H](C)[C@@H](O)c1ccccc1)OC)N(C)C(=O)[C@@H](NC(=O)[C@H](C(C)C)N(C)C(=O)OCc1ccc(NC(=O)[C@H](CCCNC(N)=O)NC(=O)[C@@H](NC(=O)[C@H](CCC(=O)O)NC(=O)[C@H](CS(=O)(=O)O)NC(=O)CCOCCC(=O)NCCNc2ncc(-c3cc(C)cc(F)c3)c(N3CCC(N)CC3)c2-c2nc3ccc(Cl)cc3[nH]2)C(C)C)cc1)C(C)C [Compound 113] (X1-[Cya]EV[Cit][PABC][NMeV]V[Dil][Dolaproine]-X2) | 0.33 | 30 | 200
2 | CC[C@H](C)[C@@H]([C@@H](CC(=O)N1CCC[C@H]1[C@H](OC)[C@@H](C)C(=O)N[C@H](C)[C@@H](O)c1ccccc1)OC)N(C)C(=O)[C@@H](NC(=O)[C@H](C(C)C)N(C)C(=O)OCc1ccc(NC(=O)[C@H](CCCNC(N)=O)NC(=O)[C@@H](NC(=O)[C@H](CS(=O)(=O)O)NC(=O)[C@H](CCC(=O)O)NC(=O)CCOCCOCCOCCOCCC(=O)NCCNc2ncc(-c3cc(C)cc(F)c3)c(N3CCC(N)CC3)c2-c2nc3ccc(Cl)cc3[nH]2)C(C)C)cc1)C(C)C [Compound 114] (X4-E[Cya]V[Cit][PABC][NMeV]V[Dil][Dolaproine]-X2) | 0.22 | 10 | 100
3 | CC[C@H](C)[C@@H]([C@@H](CC(=O)N1CCC[C@H]1[C@H](OC)[C@@H](C)C(=O)N[C@H](C)[C@@H](O)c1ccccc1)OC)N(C)C(=O)[C@@H](NC(=O)[C@H](C(C)C)N(C)C(=O)OCc1ccc(NC(=O)[C@H](C)NC(=O)[C@@H](NC(=O)[C@H](CCC(=O)O)NC(=O)CCOCCC(=O)NCCNc2ncc(-c3cc(C)cc(F)c3)c(N3CCC(N)CC3)c2-c2nc3ccc(Cl)cc3[nH]2)C(C)C)cc1C(=O)NCCN)C(C)C [Compound 116] | 0.1 | 3.9 | 6.6
4 | CC[C@H](C)[C@@H]([C@@H](CC(=O)N1CCC[C@H]1[C@H](OC)[C@@H](C)C(=O)N[C@H](C)[C@@H](O)c1ccccc1)OC)N(C)C(=O)[C@@H](NC(=O)[C@H](C(C)C)N(C)C(=O)OCc1ccc(NC(=O)[C@H](C)NC(=O)[C@@H](NC(=O)[C@H](CS(=O)(=O)O)NC(=O)CCOCCC(=O)NCCNc2ncc(-c3cc(C)cc(F)c3)c(N3CCC(N)CC3)c2-c2nc3ccc(Cl)cc3[nH]2)C(C)C)cc1C(=O)NCCN)C(C)C [Compound 117] | 0.081 | 2.6 | 3.7
5 | CC[C@H](C)[C@@H]([C@@H](CC(=O)N1CCC[C@H]1[C@H](OC)[C@@H](C)C(=O)N[C@H](C)[C@@H](O)c1ccccc1)OC)N(C)C(=O)[C@@H](NC(=O)[C@H](C(C)C)N(C)C(=O)OCc1ccc(NC(=O)[C@H](C)NC(=O)[C@@H](NC(=O)[C@H](CCC(N)=O)NC(=O)CCOCCC(=O)NCCNc2ncc(-c3cc(C)cc(F)c3)c(N3CCC(N)CC3)c2-c2nc3ccc(Cl)cc3[nH]2)C(C)C)cc1C(=O)NCCN)C(C)C [Compound 118] | 0.068 | 3.8 | 0.65
6 | CC[C@H](C)[C@@H]([C@@H](CC(=O)N1CCC[C@H]1[C@H](OC)[C@@H](C)C(=O)N[C@H](C)[C@@H](O)c1ccccc1)OC)N(C)C(=O)[C@@H](NC(=O)[C@H](C(C)C)N(C)C(=O)OCc1ccc(NC(=O)[C@H](CCCNC(N)=O)NC(=O)[C@@H](NC(=O)[C@H](CCC(N)=O)NC(=O)[C@H](CCC(=O)O)NC(=O)CCOCCOCCOCCOCCC(=O)NCCNc2ncc(-c3cc(C)cc(F)c3)c(N3CCC(N)CC3)c2-c2nc3ccc(Cl)cc3[nH]2)C(C)C)cc1)C(C)C [Compound 119] (X4-EQV[Cit][PABC][NMeV]V[Dil][Dolaproine]-X2) | 0.14 | 5.4 | 16
7 | CC[C@H](C)[C@@H]([C@@H](CC(=O)N1CCC[C@H]1[C@H](OC)[C@@H](C)C(=O)N[C@H](C)[C@@H](O)c1ccccc1)OC)N(C)C(=O)[C@@H](NC(=O)[C@H](C(C)C)N(C)C(=O)OCc1ccc(NC(=O)[C@H](C)NC(=O)[C@@H](NC(=O)[C@H](CCC(=O)O)NC(=O)CCCCCC(=O)NCCNc2ncc(-c3cc(C)cc(F)c3)c(N3CCC(N)CC3)c2-c2nc3ccc(Cl)cc3[nH]2)C(C)C)cc1C(=O)NCCN)C(C)C [Compound 120] | 0.19 | 2.7 | 2.4
8 | CC[C@H](C)[C@@H]([C@@H](CC(=O)N1CCC[C@H]1[C@H](OC)[C@@H](C)C(=O)N[C@H](C)[C@@H](O)c1ccccc1)OC)N(C)C(=O)[C@@H](NC(=O)[C@H](C(C)C)N(C)C(=O)OCc1ccc(NC(=O)[C@H](C)NC(=O)[C@@H](NC(=O)[C@H](CCC(N)=O)NC(=O)CCCCCC(=O)NCCNc2ncc(-c3cc(C)cc(F)c3)c(N3CCC(N)CC3)c2-c2nc3ccc(Cl)cc3[nH]2)C(C)C)cc1C(=O)NCCN)C(C)C [Compound 121] | 0.45 | 3 | 0.62
9 | CC[C@H](C)[C@@H]([C@@H](CC(=O)N1CCC[C@H]1[C@H](OC)[C@@H](C)C(=O)N[C@H](C)[C@@H](O)c1ccccc1)OC)N(C)C(=O)[C@@H](NC(=O)[C@H](C(C)C)N(C)C(=O)OCc1ccc(NC(=O)[C@H](CCCNC(N)=O)NC(=O)[C@@H](NC(=O)CCOCCC(=O)NCCNc2ncc(-c3cc(C)cc(F)c3)c(N3CCC(N)CC3)c2-c2nc3ccc(Cl)cc3[nH]2)C(C)C)cc1C(N)=O)C(C)C [Compound 122] | 0.18 | 3.8 | 7.9
10 | CC[C@H](C)[C@@H]([C@@H](CC(=O)N1CCC[C@H]1[C@H](OC)[C@@H](C)C(=O)N[C@H](C)[C@@H](O)c1ccccc1)OC)N(C)C(=O)[C@@H](NC(=O)[C@H](C(C)C)N(C)C(=O)OCc1ccc(NC(=O)[C@H](CCCNC(N)=O)NC(=O)[C@@H](NC(=O)CCOCCOCCOCCOCCC(=O)NCCNc2ncc(-c3cc(C)cc(F)c3)c(N3CCC(N)CC3)c2-c2nc3ccc(Cl)cc3[nH]2)C(C)C)cc1C(N)=O)C(C)C [Compound 123] | 0.13 | 7 | 18
11 | CC[C@H](C)[C@@H]([C@@H](CC(=O)N1CCC[C@H]1[C@H](OC)[C@@H](C)C(=O)N[C@H](C)[C@@H](O)c1ccccc1)OC)N(C)C(=O)[C@@H](NC(=O)[C@H](C(C)C)N(C)C(=O)OCc1ccc(NC(=O)[C@H](CCCNC(N)=O)NC(=O)[C@@H](NC(=O)CCOCCOCCOCCOCCC(=O)NCCNc2ncc(-c3cc(C)cc(F)c3)c(N3CCC(N)CC3)c2-c2nc3ccc(Cl)cc3[nH]2)C(C)C)cc1C(=O)NCC(N)=O)C(C)C [Compound 124] | 0.16 | 5.6 | 5.3
12 | CC[C@H](C)[C@@H]([C@@H](CC(=O)N1CCC[C@H]1[C@H](OC)[C@@H](C)C(=O)N[C@H](C)[C@@H](O)c1ccccc1)OC)N(C)C(=O)[C@@H](NC(=O)[C@H](C(C)C)N(C)C(=O)OCc1ccc(NC(=O)[C@H](CCCNC(N)=O)NC(=O)[C@@H](NC(=O)CCOCCC(=O)NCCNc2ncc(-c3cc(C)cc(F)c3)c(N3CCC(N)CC3)c2-c2nc3ccc(Cl)cc3[nH]2)C(C)C)cc1C(=O)NCC(N)=O)C(C)C [Compound 125] | 0.17 | 3.9 | 3.4
